Like-named read-outs stand apart in the source and are kept apart here.
Tests used:
Breast cancer cells = assay: Cancer cell line growth inhibition (SRB assay); assay type: cell-based; settings: Homo sapiens; MDA-MB-468; read-out: Cancer Cell Line GI50 Range MDA-MB-468
TICs (Ovarian 2393A) = assay: Ovarian tumor-initiating cell growth inhibition (Alamar Blue); assay type: cell-based; settings: 144 h; Ovarian 2393A TICs, 6 days; read-out: Tumor Initiating Cell GI50 Range Ovarain 2393A
TICs (Colon 12) = assay: Colon tumor-initiating cell growth inhibition (Alamar Blue); assay type: cell-based; settings: 216 h; Colon 12 TICs, 9 days; read-out: Tumor Initiating Cell GI50 Range Colon 12
[1] = tested on: colon cancer cells (HCT116); assay: Cancer cell line growth inhibition (SRB assay); assay type: cell-based; settings: Homo sapiens, HCT-116; read-out: Cancer Cell Line GI50 Range HCT116
[2] = tested on: ovarian cancer cells (PA-1); assay: Cancer cell line growth inhibition (SRB assay); assay type: cell-based; settings: Homo sapiens, PA-1; read-out: Cancer Cell Line GI50 Range PA-1
human TTK = target: T1, human TTK (Homo sapiens, UniProt P33981); assay: TTK inhibition assay (indirect ELISA); assay type: biochemical
T1 construct: amino terminal GST fusion of full length human TTK; purchased Invitrogen
T1 sequence (P33981 1-857): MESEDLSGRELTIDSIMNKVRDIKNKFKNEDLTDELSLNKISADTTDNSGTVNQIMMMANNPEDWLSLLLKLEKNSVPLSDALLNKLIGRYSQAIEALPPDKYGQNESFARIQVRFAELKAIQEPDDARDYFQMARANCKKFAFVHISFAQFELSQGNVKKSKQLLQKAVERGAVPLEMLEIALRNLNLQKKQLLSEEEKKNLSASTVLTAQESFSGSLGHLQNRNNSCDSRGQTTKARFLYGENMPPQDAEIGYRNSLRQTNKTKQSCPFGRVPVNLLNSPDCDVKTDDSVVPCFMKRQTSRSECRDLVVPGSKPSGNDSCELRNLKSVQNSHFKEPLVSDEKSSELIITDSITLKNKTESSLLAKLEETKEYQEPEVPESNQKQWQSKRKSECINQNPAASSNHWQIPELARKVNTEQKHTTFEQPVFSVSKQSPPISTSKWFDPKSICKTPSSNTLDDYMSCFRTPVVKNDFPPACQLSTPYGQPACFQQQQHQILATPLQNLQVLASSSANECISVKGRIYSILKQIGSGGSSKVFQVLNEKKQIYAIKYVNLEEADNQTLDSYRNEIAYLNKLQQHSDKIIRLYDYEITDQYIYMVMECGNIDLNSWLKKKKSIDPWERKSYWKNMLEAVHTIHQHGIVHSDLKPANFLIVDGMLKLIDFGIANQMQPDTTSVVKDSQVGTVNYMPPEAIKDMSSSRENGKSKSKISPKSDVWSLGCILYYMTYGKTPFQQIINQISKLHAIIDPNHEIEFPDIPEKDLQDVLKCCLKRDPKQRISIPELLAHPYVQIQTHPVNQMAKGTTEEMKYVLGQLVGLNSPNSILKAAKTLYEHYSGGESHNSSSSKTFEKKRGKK

MUSK = target: T2, MUSK (Homo sapiens, UniProt O15146); assay: Panel of 270 human kinases (Millipore); assay type: biochemical
T2 construct: purchased Millipore Corporation
T2 sequence (O15146 24-869): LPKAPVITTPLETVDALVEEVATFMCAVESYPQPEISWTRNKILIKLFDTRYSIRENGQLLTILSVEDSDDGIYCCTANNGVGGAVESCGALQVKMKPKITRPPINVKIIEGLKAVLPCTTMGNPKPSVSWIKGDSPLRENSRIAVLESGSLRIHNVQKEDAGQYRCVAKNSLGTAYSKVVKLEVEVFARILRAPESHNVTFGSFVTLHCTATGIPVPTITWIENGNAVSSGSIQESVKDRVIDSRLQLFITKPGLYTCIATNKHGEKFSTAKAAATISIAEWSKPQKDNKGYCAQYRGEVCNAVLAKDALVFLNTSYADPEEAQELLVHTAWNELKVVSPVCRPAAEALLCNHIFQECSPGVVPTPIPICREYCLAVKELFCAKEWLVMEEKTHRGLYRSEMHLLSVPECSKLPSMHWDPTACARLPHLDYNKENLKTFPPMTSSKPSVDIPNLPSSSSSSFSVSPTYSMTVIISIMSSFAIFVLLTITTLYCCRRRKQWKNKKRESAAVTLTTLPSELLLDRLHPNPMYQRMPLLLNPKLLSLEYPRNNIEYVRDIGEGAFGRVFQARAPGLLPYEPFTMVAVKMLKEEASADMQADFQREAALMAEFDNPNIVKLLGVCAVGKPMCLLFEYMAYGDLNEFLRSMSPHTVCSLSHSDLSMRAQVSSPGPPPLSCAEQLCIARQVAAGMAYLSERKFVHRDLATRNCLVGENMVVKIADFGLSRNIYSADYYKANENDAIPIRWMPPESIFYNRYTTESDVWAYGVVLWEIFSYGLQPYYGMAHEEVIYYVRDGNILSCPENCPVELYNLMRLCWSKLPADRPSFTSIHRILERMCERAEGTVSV
Description: (§1) The inhibitory activity of selected compounds of the invention (A335, A405, A410, A261, A300 and A363) was evaluated against a panel of 270 different human kinase enzymes by Millipore Corporation. The % Inhibition was determined by the formula: % Inhibition=100×(1−(experimental value−background value)/(high activity control−background value)).

cKit (V560G) = target: T3, cKit (V560G) (Homo sapiens, UniProt P10721, V560G); assay: Panel of 270 human kinases (Millipore); assay type: biochemical
T3 construct: purchased Millipore Corporation
T3 sequence (P10721 26-976 V560G): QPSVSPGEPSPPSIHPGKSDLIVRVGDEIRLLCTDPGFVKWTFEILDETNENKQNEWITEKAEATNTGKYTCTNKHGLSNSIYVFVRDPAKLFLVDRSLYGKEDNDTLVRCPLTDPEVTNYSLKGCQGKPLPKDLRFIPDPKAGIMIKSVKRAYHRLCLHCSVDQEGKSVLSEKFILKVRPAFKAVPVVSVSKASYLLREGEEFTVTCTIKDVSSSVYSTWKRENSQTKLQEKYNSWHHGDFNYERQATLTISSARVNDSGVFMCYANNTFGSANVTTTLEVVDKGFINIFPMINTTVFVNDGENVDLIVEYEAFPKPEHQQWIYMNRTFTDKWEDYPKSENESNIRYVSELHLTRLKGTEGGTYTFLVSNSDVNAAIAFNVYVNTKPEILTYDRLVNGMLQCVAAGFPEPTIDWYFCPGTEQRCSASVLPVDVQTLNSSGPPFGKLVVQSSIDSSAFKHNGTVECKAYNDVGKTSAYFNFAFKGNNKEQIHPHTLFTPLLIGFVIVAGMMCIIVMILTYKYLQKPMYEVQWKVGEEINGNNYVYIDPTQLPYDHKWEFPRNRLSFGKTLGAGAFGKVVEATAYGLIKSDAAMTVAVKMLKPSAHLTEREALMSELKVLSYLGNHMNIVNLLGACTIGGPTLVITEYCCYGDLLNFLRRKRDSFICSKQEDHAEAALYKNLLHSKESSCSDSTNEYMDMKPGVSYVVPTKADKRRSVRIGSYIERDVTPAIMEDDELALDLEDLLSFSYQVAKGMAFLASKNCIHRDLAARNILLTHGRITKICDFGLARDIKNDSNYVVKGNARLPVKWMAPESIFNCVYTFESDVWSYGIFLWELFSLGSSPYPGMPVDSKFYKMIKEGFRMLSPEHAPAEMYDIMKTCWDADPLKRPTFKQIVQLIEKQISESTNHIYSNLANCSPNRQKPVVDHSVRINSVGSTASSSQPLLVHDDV
Description: as §1

MAPK2 = target: T4, MAPK2 (Homo sapiens, UniProt P28482); assay: Panel of 270 human kinases (Millipore); assay type: biochemical
T4 construct: purchased Millipore Corporation
T4 sequence (P28482 whole entry): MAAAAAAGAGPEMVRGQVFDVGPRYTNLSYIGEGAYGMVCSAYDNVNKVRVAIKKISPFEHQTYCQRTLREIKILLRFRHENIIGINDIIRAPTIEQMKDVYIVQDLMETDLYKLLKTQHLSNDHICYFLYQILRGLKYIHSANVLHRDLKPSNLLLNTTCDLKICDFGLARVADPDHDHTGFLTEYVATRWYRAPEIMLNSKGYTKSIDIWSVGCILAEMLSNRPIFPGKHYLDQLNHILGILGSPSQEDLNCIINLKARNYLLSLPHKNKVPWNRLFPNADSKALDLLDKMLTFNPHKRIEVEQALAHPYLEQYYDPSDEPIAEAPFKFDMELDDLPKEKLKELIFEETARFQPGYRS
Description: as §1

MELK = target: T5, MELK (Homo sapiens, UniProt Q14680); assay: Panel of 270 human kinases (Millipore); assay type: biochemical
T5 construct: purchased Millipore Corporation
Description: as §1

ALK = target: T6, ALK (Homo sapiens, UniProt Q9UM73); assay: Panel of 270 human kinases (Millipore); assay type: biochemical
T6 construct: purchased Millipore Corporation
T6 sequence (Q9UM73 19-1620): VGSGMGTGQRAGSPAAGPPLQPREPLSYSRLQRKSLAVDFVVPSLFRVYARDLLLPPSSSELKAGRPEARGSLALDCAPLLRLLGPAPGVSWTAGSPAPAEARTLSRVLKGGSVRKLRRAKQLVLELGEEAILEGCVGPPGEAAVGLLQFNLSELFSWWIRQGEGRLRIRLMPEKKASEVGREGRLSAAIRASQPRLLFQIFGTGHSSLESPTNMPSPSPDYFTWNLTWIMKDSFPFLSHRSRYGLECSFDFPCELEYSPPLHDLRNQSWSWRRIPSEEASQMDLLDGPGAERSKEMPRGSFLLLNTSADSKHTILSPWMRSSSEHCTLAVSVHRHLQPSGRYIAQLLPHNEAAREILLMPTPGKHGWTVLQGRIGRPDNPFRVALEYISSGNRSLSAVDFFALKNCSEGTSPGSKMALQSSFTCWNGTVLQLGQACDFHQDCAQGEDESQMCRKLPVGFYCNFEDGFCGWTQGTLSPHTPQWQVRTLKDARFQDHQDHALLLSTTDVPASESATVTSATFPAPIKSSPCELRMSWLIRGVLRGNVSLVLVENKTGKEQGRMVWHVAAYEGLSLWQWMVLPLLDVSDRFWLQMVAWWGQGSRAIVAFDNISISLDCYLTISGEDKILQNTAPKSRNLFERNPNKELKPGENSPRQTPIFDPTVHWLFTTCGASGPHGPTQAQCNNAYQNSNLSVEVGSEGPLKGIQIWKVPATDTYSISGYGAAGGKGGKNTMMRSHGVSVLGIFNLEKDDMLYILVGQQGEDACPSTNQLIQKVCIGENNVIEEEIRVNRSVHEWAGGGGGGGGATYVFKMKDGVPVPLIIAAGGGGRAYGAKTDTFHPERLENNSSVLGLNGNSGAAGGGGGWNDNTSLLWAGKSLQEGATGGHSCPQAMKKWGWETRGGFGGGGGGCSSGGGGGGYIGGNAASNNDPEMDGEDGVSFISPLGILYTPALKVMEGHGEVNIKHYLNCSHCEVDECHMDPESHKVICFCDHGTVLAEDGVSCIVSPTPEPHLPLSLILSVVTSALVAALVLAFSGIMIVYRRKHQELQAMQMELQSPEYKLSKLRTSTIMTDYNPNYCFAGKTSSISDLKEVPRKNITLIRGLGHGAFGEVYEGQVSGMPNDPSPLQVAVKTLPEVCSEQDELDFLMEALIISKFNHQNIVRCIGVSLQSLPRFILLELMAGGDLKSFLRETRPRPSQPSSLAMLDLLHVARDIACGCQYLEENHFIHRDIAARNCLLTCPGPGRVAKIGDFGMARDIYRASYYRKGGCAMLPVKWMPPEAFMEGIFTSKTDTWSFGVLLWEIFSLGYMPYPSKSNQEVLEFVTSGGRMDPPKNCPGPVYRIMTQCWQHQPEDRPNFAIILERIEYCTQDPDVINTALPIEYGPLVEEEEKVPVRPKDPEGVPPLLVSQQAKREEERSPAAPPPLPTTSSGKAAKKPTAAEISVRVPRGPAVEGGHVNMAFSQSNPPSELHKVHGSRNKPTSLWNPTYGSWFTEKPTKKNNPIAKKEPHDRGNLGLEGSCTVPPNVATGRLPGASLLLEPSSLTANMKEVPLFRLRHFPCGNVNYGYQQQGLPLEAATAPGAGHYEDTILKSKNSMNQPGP
Description: as §1

Met(Y1248C) = target: T7, Met(Y1248C) (Homo sapiens, UniProt P08581, Y1230C); assay: Panel of 270 human kinases (Millipore); assay type: biochemical
T7 construct: purchased Millipore Corporation
T7 sequence (P08581 25-1408 isoform P08581-2 Y1248C limits assumed): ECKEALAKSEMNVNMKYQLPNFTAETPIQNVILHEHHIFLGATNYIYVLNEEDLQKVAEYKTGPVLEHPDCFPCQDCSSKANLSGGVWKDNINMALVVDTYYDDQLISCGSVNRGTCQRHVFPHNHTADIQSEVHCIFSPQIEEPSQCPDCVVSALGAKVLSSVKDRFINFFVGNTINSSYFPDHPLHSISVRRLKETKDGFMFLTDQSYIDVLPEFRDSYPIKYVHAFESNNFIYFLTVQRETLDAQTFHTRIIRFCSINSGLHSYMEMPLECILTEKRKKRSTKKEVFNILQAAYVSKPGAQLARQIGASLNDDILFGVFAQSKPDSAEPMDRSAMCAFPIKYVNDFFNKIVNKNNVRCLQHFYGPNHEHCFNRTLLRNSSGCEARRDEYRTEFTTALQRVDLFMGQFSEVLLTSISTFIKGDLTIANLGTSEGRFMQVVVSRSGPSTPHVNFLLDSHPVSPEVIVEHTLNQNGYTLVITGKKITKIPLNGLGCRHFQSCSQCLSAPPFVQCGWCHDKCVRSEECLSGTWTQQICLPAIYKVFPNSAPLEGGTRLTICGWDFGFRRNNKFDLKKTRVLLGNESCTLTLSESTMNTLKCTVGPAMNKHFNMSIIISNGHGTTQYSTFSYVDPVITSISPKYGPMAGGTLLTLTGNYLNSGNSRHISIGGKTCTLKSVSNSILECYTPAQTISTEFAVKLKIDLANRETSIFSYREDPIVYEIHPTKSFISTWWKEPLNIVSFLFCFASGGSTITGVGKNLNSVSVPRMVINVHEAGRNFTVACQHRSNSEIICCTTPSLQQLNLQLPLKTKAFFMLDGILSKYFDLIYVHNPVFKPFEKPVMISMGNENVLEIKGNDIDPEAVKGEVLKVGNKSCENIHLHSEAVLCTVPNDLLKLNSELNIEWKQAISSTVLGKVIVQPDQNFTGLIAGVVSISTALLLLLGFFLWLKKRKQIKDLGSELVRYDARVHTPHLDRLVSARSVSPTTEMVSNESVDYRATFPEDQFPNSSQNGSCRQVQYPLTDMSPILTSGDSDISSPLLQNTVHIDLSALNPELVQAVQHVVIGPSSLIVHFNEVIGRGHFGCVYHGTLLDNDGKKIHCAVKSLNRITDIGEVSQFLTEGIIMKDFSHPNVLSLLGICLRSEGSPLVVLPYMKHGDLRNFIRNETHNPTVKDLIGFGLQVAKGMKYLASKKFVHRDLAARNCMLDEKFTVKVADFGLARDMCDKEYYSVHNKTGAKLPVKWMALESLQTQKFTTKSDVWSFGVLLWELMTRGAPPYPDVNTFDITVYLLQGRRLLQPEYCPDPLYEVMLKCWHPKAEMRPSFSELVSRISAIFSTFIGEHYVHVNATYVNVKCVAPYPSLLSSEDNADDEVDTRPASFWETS
Description: as §1

Aurora-B = target: T8, Aurora-B (Homo sapiens, UniProt Q96GD4); assay: Panel of 270 human kinases (Millipore); assay type: biochemical
T8 construct: purchased Millipore Corporation
T8 sequence (Q96GD4 whole entry): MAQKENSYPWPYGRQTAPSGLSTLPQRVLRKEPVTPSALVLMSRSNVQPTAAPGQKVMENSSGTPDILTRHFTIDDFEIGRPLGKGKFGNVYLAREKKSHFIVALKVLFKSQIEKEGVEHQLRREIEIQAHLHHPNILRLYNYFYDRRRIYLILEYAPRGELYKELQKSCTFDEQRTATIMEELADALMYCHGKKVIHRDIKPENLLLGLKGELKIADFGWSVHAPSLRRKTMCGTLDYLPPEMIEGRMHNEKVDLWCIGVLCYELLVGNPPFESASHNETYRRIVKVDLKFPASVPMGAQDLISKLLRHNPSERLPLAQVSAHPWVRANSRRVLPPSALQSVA
Description: as §1

JNK3 = target: T9, JNK3 (Homo sapiens, UniProt P53779); assay: Panel of 270 human kinases (Millipore); assay type: biochemical
T9 construct: purchased Millipore Corporation
T9 sequence (P53779 whole entry): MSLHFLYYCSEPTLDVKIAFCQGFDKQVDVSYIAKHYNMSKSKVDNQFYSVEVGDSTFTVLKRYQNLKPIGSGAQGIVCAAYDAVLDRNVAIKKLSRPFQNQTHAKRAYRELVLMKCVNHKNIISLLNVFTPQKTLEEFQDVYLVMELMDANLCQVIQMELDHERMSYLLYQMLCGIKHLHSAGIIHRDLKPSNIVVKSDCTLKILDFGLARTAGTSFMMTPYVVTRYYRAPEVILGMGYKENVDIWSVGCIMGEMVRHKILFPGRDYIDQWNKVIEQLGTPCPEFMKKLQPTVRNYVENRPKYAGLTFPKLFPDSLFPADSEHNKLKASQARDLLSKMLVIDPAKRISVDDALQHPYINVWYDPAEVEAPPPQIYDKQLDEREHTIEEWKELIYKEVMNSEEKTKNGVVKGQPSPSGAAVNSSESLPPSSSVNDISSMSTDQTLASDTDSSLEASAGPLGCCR
Description: as §1

| Structure (SMILES) | GI50 (Breast cancer cells) [nM] | GI50 (TICs (Ovarian 2393A)) [nM] | GI50 (TICs (Colon 12)) [nM] | GI50 [1] [nM] | GI50 [2] [nM] | IC50 (human TTK; read-out: TTK IC50 Range) [nM] | inhibition at 1 µM (MUSK) [%] | inhibition at 1 µM (cKit (V560G)) [%] | inhibition at 1 µM (MAPK2) [%] | inhibition at 1 µM (MELK) [%] | inhibition at 1 µM (ALK) [%] | inhibition at 1 µM (Met(Y1248C)) [%] | inhibition at 1 µM (Aurora-B) [%] | inhibition at 1 µM (JNK3) [%] | IC50 (human TTK) [nM] |
| --- | --- | --- | --- | --- | --- | --- | --- | --- | --- | --- | --- | --- | --- | --- | --- |
| CC1=CC2(CCN(C)CC2)Oc2ccc(-c3n[nH]c4ccc(C(=O)N[C@H](c5ccccn5)C5CCCC5)cc34)cc21 [Example A261, (S)-N-(cyclopentyl(pyridin-2-yl)methyl)-3-(1′,4-dimethylspiro[chromene-2,4′-piperidin]-6-yl)-1H-indazole-5-carboxamide] | < 100 | < 100 | 100 to 500 | < 100 | < 100 | < 100 | 86 | 90 | 8 | 93 | 86 | 8 | 49 | 59 |  |
| O=C(N[C@@H](c1ccccn1)C1CC1)c1ccc2[nH]nc(-c3ccc(N4C5CCC4CC(O)C5)cc3)c2c1 (stereo partly drawn) [Example A363, N-((R)-cyclopropyl(pyridin-2-yl)methyl)-3-(4-((1R,3R,5S)-3-hydroxy-8-azabicyclo[3.2.1]octan-8-yl)phenyl)-1H-indazole-5-carboxamide] |  | < 100 | < 100 | < 100 | < 100 |  | 53 | 48 | 90 | 80 | 6 | 23 | 75 | 90 | < 100 |
| CC(C)[C@H](NC(=O)c1ccc2[nH]nc(-c3ccc(N4CCN(C5COC5)CC4)cc3)c2c1)c1ccccc1Cl [Example A405, (S)-N-(1-(2-chlorophenyl)-2-methylpropyl)-3-(4-(4-(oxetan-3-yl)piperazin-1-yl)phenyl)-1H-indazole-5-carboxamide] | < 100 | < 100 | < 100 | < 100 | < 100 | < 100 | 94 | 65 | 11 | 92 | 2 | 44 | 94 | 81 |  |
| O=C(N[C@H](c1ccccn1)C1CCCC1)c1ccc2[nH]nc(-c3ccc(N4CCN(C5COC5)CC4)cc3)c2c1 [Example A410, (S)-N-(cyclopentyl(pyridin-2-yl)methyl)-3-(4-(4-(oxetan-3-yl)piperazin-1-yl)phenyl)-1H-indazole-5-carboxamide] |  | < 100 | < 100 | < 100 | < 100 | < 100 | 96 | 86 | -8 | 95 | -3 | 88 | 92 | 81 |  |
